# Laboratory results published in ChEMBL document CHEMBL4616697, “Discovery of Adamantane Carboxamides as Ebola Virus Cell Entry and Glycoprotein Inhibitors” (ACS Med Chem Lett, 2020).
# Key:
# [1] = Inhibition of glycoprotein in VSV pseudotyped Ebolavirus infected in African green monkey Vero cells assessed as reduction in virus entry incubated for 24 hrs by luciferase reporter gene assay; format: cell-based
# [2] = Metabolic stability in human liver microsomes assessed as parent compound remaining at 1 uM pretreated for 30 mins followed by NADPH addition and measured after 60 mins by LC-MS/MS analysis; format: ADME, Microsome; details: for remaining at 1 h, 1 µM: liver microsomes, read-out: Stability; for Stability: microsomes, 1 h, 1 µM
# [3] = Kinetic aqueous solubility of compound in PBS at pH 6.4 to 7.5 measured after 2 hrs by spectrophotometry analysis; format: physicochemical; details: read-out: Kinetic_solubility
# [4] = Metabolic stability in mouse liver microsomes assessed as parent compound remaining at 1 uM pretreated for 30 mins followed by NADPH addition and measured after 60 mins by LC-MS/MS analysis; format: ADME, Microsome; details: read-out: Stability
# [5] = Metabolic stability in guinea pig liver microsomes assessed as parent compound remaining at 1 uM pretreated for 30 mins followed by NADPH addition and measured after 60 mins by LC-MS/MS analysis; format: ADME, Cavia porcellus, Microsome; details: read-out: Stability
# [6] = Metabolic stability in rat liver microsomes assessed as parent compound remaining at 1 uM pretreated for 30 mins followed by NADPH addition and measured after 60 mins by LC-MS/MS analysis; format: ADME, Microsome; details: read-out: Stability
# [7] = Metabolic stability in Cynomolgus monkey liver microsomes assessed as parent compound remaining at 1 uM pretreated for 30 mins followed by NADPH addition and measured after 60 mins by LC-MS/MS analysis; format: ADME, Macaca fascicularis, Microsome; details: read-out: Stability
# [8] = Metabolic stability in dog liver microsomes assessed as parent compound remaining at 1 uM pretreated for 30 mins followed by NADPH addition and measured after 60 mins by LC-MS/MS analysis; format: ADME, Canis lupus familiaris, Microsome; details: read-out: Stability
# [9] = Aqueous solubility of compound in PBS at pH 7.4 measured after 2 hrs by spectrophotometry analysis; format: physicochemical
# [10] = tested on: Ebolavirus; assay: Antiviral activity against wild type Ebolavirus infected in African green monkey Vero cells assessed as reduction in plaque forming units incubated for 10 days by crystal violet staining based assay; format: functional, organism-based; details: Orthoebolavirus, 240 h
# [11] = tested on: Ebolavirus; assay: Antiviral activity against wild type Ebolavirus infected in African green monkey Vero E6 cells assessed as inhibition of viral entry compound treated with primary viral infected cells for 60 mins and after 3 days post-infection measured following 10 days of compound incubation with fresh cells infected with primary culture supernatants by virus yield reduction assay; format: functional; details: Orthoebolavirus, Vero C1008
# [12] = Cytotoxicity against African green monkey Vero E6 cells assessed as reduction in cell viability incubated for 10 days by neutral red dye based spectrophotometry analysis; set-up: species or system Vero C1008; details: chlorocebus sabaeus
# [13] = Selectivity index, ratio of CC50 for African green monkey Vero E6 cells assessed as reduction in cell viability incubated for 10 days by neutral red dye based spectrophotometry analysis to EC90 for wild type Ebolavirus infected in African green monkey Vero E6 cells assessed as reduction in viral replication by virus yield reduction assay; format: toxicity, Vero C1008; details: read-out: Selectivity Index
Compound,"EC50 ([1]; Orthoebolavirus, Vero, 24 h) [nM]",solubility kinetic at 2 h [3] [µM],further results
C[C@@]12C[C@H]3C[C@@](C(=O)NC4CCNCC4)(C1)C[C@](c1ccccc1)(C3)C2,,,EC50 ([1]; vero): 240 nM
CC12CC3CC(C(=O)N4CCC(N)CC4)(C1)CC(c1ccccc1)(C3)C2 (racemic),51,> 100,"remaining at 1 h, 1 µM [2]: 81%"
CC12CC3CC(C(=O)N[C@H]4[C@@H]5CNC[C@@H]54)(C1)CC(c1ccccc1)(C3)C2 (mixture of isomers),120,61,
c1ccc(C23CC4CC(CC(CNC5CCNCC5)(C4)C2)C3)cc1,470,> 100,
CC12CC3(C)CC(C(=O)NC4CCNCC4)(C1)CC(c1ccccc1)(C2)C3,320,> 100,
COc1ccc(C23CC4CC(CC(C(=O)NC5CCNCC5)(C4)C2)C3)cc1,380,> 100,
O=C(NC1CCNCC1)C12CC3CC(C1)CC(c1ccc([N+](=O)[O-])cc1)(C3)C2,> 3000,> 100,
CC12CC3CC(C(=O)NCC4CCNCC4)(C1)CC(c1ccccc1)(C3)C2 (racemic),420,> 100,
CC12CC3CC(C(=O)NC4CCNCC4)(C1)CC(c1ccccc1)(C3)C2 (racemic),,> 100,"EC50 ([1]; vero): 43 nM; remaining at 1 h, 1 µM [2]: 75%"
O=C(NC12CC3CC(C1)CC(c1ccccc1)(C3)C2)C1CCNCC1,> 1000,> 100,
CC12CC3CC(C(=O)N[C@H]4CC[C@H](N)CC4)(C1)CC(c1ccccc1)(C3)C2 (mixture of isomers),,> 100,"EC50 ([1]; vero): 31 nM; remaining at 1 h, 1 µM [2]: 92%"
O=C(NC1CCNCC1)C12CC3CC1CC(c1ccccc1)(C3)C2 (stereo not given),330,> 100,
CC12CC3CC(C(=O)N[C@H]4CC[C@H](N)CC4)(C1)CC(c1ccccc1)(C3)C2 (stereo in doubt; 38),,,"EC50 ([1]; vero): 14 nM; Stability [2]: 100%; remaining at 1 h, 1 µM [4]: 74%; remaining at 1 h, 1 µM [5]: 100%; remaining at 1 h, 1 µM [6]: 63%; remaining at 1 h, 1 µM [7]: 89%; remaining at 1 h, 1 µM [8]: 96%; solubility at 2 h [9]: > 20 mg/mL; EC50 [10]: 240 nM; EC90 [11]: 750 nM; CC50 at 240 h [12]: 58000 nM; selectivity ratio at 240 h [13]: 77"
O=C(NC1CCNCC1)C12CC3CC(C1)CC(c1ccccc1)(C3)C2,72,> 100,
O=C(NC1CCN(Cc2ccccc2)CC1)C12CC3CC(C1)CC(c1ccccc1)(C3)C2,380,> 100,
O=C(NC1CCNCC1)C12CC3CC(C1)CC(c1ccc(Cl)cc1)(C3)C2,190,> 100,
CCC12CC3CC(C(=O)NC4CCNCC4)(C1)CC(c1ccccc1)(C3)C2 (racemic),20,> 100,"remaining at 1 h, 1 µM [2]: 69%"
CC12CC3CC(C(=O)N[C@H]4CC[C@H](CN)CC4)(C1)CC(c1ccccc1)(C3)C2 (mixture of isomers),,> 100,"EC50 ([1]; vero): 30 nM; remaining at 1 h, 1 µM [2]: 75%"
CCC12CC3CC(C(=O)N[C@H]4CC[C@H](N)CC4)(C1)CC(c1ccccc1)(C3)C2 (stereo in doubt; 43),,,EC50 ([1]; vero): 350 nM
CCC12CC3CC(C(=O)N[C@H]4CC[C@H](N)CC4)(C1)CC(c1ccccc1)(C3)C2 (mixture of isomers),,> 100,"EC50 ([1]; vero): 10 nM; remaining at 1 h, 1 µM [2]: 71%"
O=C(N1CCNCC1)C12CC3CC(C1)CC(c1ccccc1)(C3)C2,260,> 100,

Compound,"EC50 ([1]; Orthoebolavirus, Vero, 24 h) [nM]",solubility kinetic at 2 h [3] [µM],further results
CC12CC3CC(C(=O)NC4CC5(CC(N)C5)C4)(C1)CC(c1ccccc1)(C3)C2 (racemic),40,> 100,"remaining at 1 h, 1 µM [2]: 79%"
CN1CCC(NC(=O)C23CC4CC(C2)CC(c2ccccc2)(C4)C3)CC1,160,> 100,
CC12CC3CC(C(=O)N[C@@H]4CCNC[C@H]4F)(C1)CC(c1ccccc1)(C3)C2 (mixture of isomers),33,> 100,"remaining at 1 h, 1 µM [2]: 60%"
O=C(NC1CCNCC1)C12CC3CC(C1)CC(c1ccc(O)cc1)(C3)C2,1700,> 100,
C[C@]12C[C@@H]3C[C@](C(=O)NC4CCNCC4)(C1)C[C@@](c1ccccc1)(C3)C2,,,"EC50 ([1]; vero): 28 nM; Stability [2]: 81%; remaining at 1 h, 1 µM [4]: 86%; remaining at 1 h, 1 µM [7]: 83%; solubility at 2 h [9]: > 20 mg/mL; EC90 [11]: 2100 nM; CC50 at 240 h [12]: 71000 nM; selectivity ratio at 240 h [13]: 34"
O=C(NC1CCNCC1)C1C2CC3CC1CC(c1ccccc1)(C3)C2 (stereo not given),180,> 100,
O=C(N1CCc2ccccc2C1)C12CC3CC(C1)CC(c1ccccc1)(C3)C2,2300,> 100,
C[C@H]1C[C@H](NC(=O)C23CC4CC(C)(C2)CC(c2ccccc2)(C4)C3)CCN1 (mixture of isomers),46,> 100,"remaining at 1 h, 1 µM [2]: 75%"
CC12CC3CC(C(=O)N[C@H]4CC[C@@H](N)CC4)(C1)CC(c1ccccc1)(C3)C2 (mixture of isomers),110,> 100,"remaining at 1 h, 1 µM [2]: 87%"
O=C(NC1CCNCC1)NC12CC3CC(C1)CC(c1ccccc1)(C3)C2,> 1000,> 100,
O=C(CC12CC3CC(C1)CC(c1ccccc1)(C3)C2)NC1CCNCC1,490,> 100,
CC12CC3CC(C(=O)N[C@H]4CC[C@H](N)CC4)(C1)CC(c1ccccc1)(C3)C2 (stereo in doubt; 39),,,EC50 ([1]; vero): 140 nM
CC12CC3CC(C(=O)N[C@H]4CC[C@H](CN)CC4)(C1)CC(c1ccccc1)(C3)C2 (stereo in doubt; 41),,,EC50 ([1]; vero): 74 nM
CC12CC3CC(C(=O)NCCN)(C1)CC(c1ccccc1)(C3)C2 (racemic),250,> 100,
NC1CCN(C(=O)C23CC4CC(C2)CC(c2ccccc2)(C4)C3)CC1,120,> 100,
CN1CCC(N(C)C(=O)C23CC4CC(C2)CC(c2ccccc2)(C4)C3)CC1,280,> 100,
CC12CC3CC(C(=O)N4CCNCC4)(C1)CC(c1ccccc1)(C3)C2 (racemic),130,> 100,"remaining at 1 h, 1 µM [2]: 100%"
CC12CC3CC(C(=O)NC4CNC4)(C1)CC(c1ccccc1)(C3)C2 (racemic),280,> 100,
CC12CC3CC(C(=O)N[C@H]4CC[C@H](CN)CC4)(C1)CC(c1ccccc1)(C3)C2 (stereo in doubt; 40),,,"EC50 ([1]; vero): 10 nM; Stability [2]: 82%; remaining at 1 h, 1 µM [4]: 27%; remaining at 1 h, 1 µM [5]: 99%; remaining at 1 h, 1 µM [6]: 27%; remaining at 1 h, 1 µM [7]: 61%; remaining at 1 h, 1 µM [8]: 85%; solubility at 2 h [9]: > 20 mg/mL; EC50 [10]: 430 nM; EC90 [11]: 550 nM; CC50 at 240 h [12]: 22000 nM; selectivity ratio at 240 h [13]: 40"
O=C(NC1CCNCC1)C12CC3CC(C1)CC(c1ccc(F)cc1)(C3)C2,310,> 100,
